Each structure is given as a SMILES string. Values after ≈ are worked out from the molar mass of the structure shown. Where two headings read alike, the source gives them in different places.

The nature of data set [1]: Phase-solubility of dexmedetomidine in aqueous 2-HP-β-CD solutions (phosphate buffers, 32 °C). The note with it: for solubility at 240 h: phosphate buffer with 2-hp-β-cd, 32° C., read-out: DEX solubility. Type of data set: physicochemical. The protocol: The excess amount of the drug was added to pH 6.0, 7.0 and 8.0 phosphate buffers (142 mM) and the pHs of the suspensions were readjusted with 0.2M NaOH. The suspensions were shaken at 32° C. in a water bath for 10 days. After equilibration, the saturated solutions of DEX were filtered, diluted and the concentrations of DEX were analyzed by RP-HPLC at 210 nm.

Data set [2] can be described thus: In vitro release of DEX from silicone depot patches in diffusion cells. In kind it is physicochemical. The note with it: trisodium phosphate in device core. The protocol: The effect of cyclodextrin on the release rate of DEX was determined using reservoir-type silicone depot patches. Typical composition of the reservoir containing the drug and CD in molar ratio 1:1 was:
______________________________________
DEX HCl 200 μg (170 μg DEX base)
Tris-buffer (TRIS), trisodium phosphate (TP), disodium phosphate (DP), sodium phosphate (MP) or the mixture of disodium and sodium phosphates (50/50) (MP/DP) were used to buffer the devices. 2-HP-β-CD was added to the device in three different ways:
1) without precomplexation with DEX
2) using an inclusion complex of DEX and CD prepared by grinding
3) using an inclusion complex of DEX and CD prepared by spray-drying
In some patches the amount of pH-adjusting agent (DP) was decreased from 1600 μg to 200 μg or 2-HP-γ-CD was used instead of β-derivative.
Silicone membranes for the devices were made of MDX-4-4210 medical grade elastomer (Dow Corning, Midland, […].) by mixing 10% (w/w) MDX-4240 curing agent with the elastomer. […]
In vitro release of DEX from the devices was determined in diffusion cells at 34 ±1° C. […] At predetermined times, samples of 250 μl were withdrawn, replaced by fresh buffer solution, and the concentration of DEX in the samples was analyzed by RP-HPLC. After each release experiment pH in the devices was measured with a microelectrode.

For data set [3] the following is noted: as pH is increased; cited from earlier work.

As a reminder, the solubility is how much of the substance goes into solution per volume. In the case of `Cc1cccc([C@H](C)c2cnc[nH]2)c1C` [DEX, dexmedetomidine], in data set [1] (pH 6.0, 7.0 and 8.0), the “influence of 2-HP-β-CD on solubility of DEX (in words)” value is recorded as “the greatest as the pH of the solutions was highest”. Also, the “improvement of the solubility of DEX by addition of 50% (m/V) 2-HP-β-CD” value in data set [1] (pH 6.0, 7.0 and 8.0 buffers) is given as 19-99 times. Besides, the solubility at 240 h in data set [1] (pH 6, pH 6, 2-HP-β-CD 5 % (m/V) (35 mM)) amounted to 7060 µg/mL (≈ 35.3 mM); in data set [1] (pH 6, pH 6, 2-HP-β-CD 10 % (m/V) (70 mM)) it was 10000 µg/mL (≈ 50 mM); in data set [1] (pH 6, pH 6, 2-HP-β-CD 15 % (m/V) (105 mM)) it was 12800 µg/mL (≈ 63.9 mM); in data set [1] (pH 6, pH 6, 2-HP-β-CD 30 % (m/V) (209 mM)) it was 20900 µg/mL (≈ 105 mM); in data set [1] (pH 6, pH 6, 2-HP-β-CD 50 % (m/V) (349 mM)), 36800 µg/mL (≈ 184 mM); in data set [1] (pH 7, pH 7, 2-HP-β-CD 5 % (m/V) (35 mM)) it was 1600 µg/mL (≈ 7.99 mM). Besides, the solubility at 240 h is 3040 µg/mL (≈ 15.2 mM) in data set [1] (pH 7, pH 7, 2-HP-β-CD 10 % (m/V) (70 mM)); 4910 µg/mL (≈ 24.5 mM) in data set [1] (pH 7, pH 7, 2-HP-β-CD 15 % (m/V) (105 mM)); 9330 µg/mL (≈ 46.6 mM) in data set [1] (pH 7, pH 7, 2-HP-β-CD 30 % (m/V) (209 mM)); 12800 µg/mL (≈ 64.1 mM) in data set [1] (pH 7, pH 7, 2-HP-β-CD 50 % (m/V) (349 mM)); 1230 µg/mL (≈ 6.15 mM) in data set [1] (pH 8, pH 8, 2-HP-β-CD 5 % (m/V) (35 mM)); 2260 µg/mL (≈ 11.3 mM) in data set [1] (pH 8, pH 8, 2-HP-β-CD 10 % (m/V) (70 mM)). The solubility at 240 h in data set [1] (pH 8, pH 8, 2-HP-β-CD 15 % (m/V) (105 mM)) came out at 3770 µg/mL (≈ 18.8 mM); in data set [1] (pH 8, pH 8, 2-HP-β-CD 30 % (m/V) (209 mM)) it was 7200 µg/mL (≈ 35.9 mM); in data set [1] (pH 8, pH 8, 2-HP-β-CD 50 % (m/V) (349 mM)), 13300 µg/mL (≈ 66.2 mM). The “increase of DEX release rate by trisodium phosphate” value in data set [2] is “over 180 times”. Also, the “aqueous solubility (in words)” value in data set [3] was “drops dramatically”.
